Laboratory results taken from patent US9206159B2, “Piperazine-piperidine compounds as hepatitis C virus inhibitors” (Theravance Biopharma R&D IP, LLC, priority 2012, dated 2015).

Assays:
[1] = tested on: HCV genotype 1a replicon cell line; experiment: HCV Genotype 1a Replicon Assay; assay type: cell-based, hepatitis C virus; conditions: Huh7.5 cell background, NS3-specific protease activity in lysates, 48 or 72 hours; for EC50: Hepatitis C virus, read-out: Genotype 1a (pEC50 class) (converted)
In short: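 Huh7.5-based subgenomic genotype 1a replicon cells, plated without G418, exposed to compound dose-responses (0.5% DMSO final) for 48 or 72 h at 37 °C. Lysate NS3/4a protease activity read with 15 μM FRET substrate, 20 min at 37 °C (Ex 340/Em 509 nm); EC50 from 4-parameter fit.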

[2] = tested on: HCV genotype 1b replicon cell line; experiment: HCV Genotype 1b Replicon Assay; assay type: cell-based, hepatitis C virus; conditions: Renilla luciferase readout, 48 hours; for EC50: Hepatitis C virus, Huh-7, Huh7 cell background, read-out: Genotype 1b (pEC50 class) (converted); for Genotype 1b (pEC50 class): Huh7 cell background
Text: Assay 1: HCV Genotype 1b Replicon Assay
The HCV genotype 1b replicon cell line was obtained from Apath LLC (Brooklyn, N.Y.) (APC144; Huh7 cell background). This subgenomic replicon contains the N-terminus of the HCV core protein fused to the neomycin-resistance selectable marker. The EMCV IRES lies downstream and drives expression of humanized Renilla luciferase fused to the non-structural proteins NS3-NS5B. This cell line was used to determine compound potency using the luciferase activity readout as a measurement of compound inhibition of replicon levels.
Cells were grown at 37° C. in a 5% CO2 humidified incubator in DMEM (Invitrogen) with 10% FBS (HyClone), 1×NEAA (Invitrogen), 1× Pen-Strep (Invitrogen), and 500 μg/mL G418 (Invitrogen). On day 1 of the assay, cells were plated at 10,000 cells/well in white 96-well tissue culture plates (Costar) in 200 μL media lacking G418. Four hours later, once the cells have adhered, the media was removed and replaced with media (no G418) containing dose-responses of test compounds. Compounds were initially diluted in DMSO and then diluted another 200× in media to bring the final DMSO concentration down to 0.5%. The cells were incubated with test compounds for 48 hours. At the end of the incubation period, media and compound were removed from the plates and the luciferase activity was determined using Promega Renilla-Glo reagents.
To analyze the data, the luciferase activity was plotted vs. the compound concentration, and EC50 values were determined from a 4-parameter robust fit model with the GraphPad Prism software package (GraphPad Software, Inc., San Diego, Calif.). Results are expressed as the negative decadic logarithm of the EC50 value, pEC50.
Test compounds having a higher pEC50 value in this assay show greater inhibition of HCV genotype 1b replication.

Structure (SMILES): COC(=O)N[C@H](C(=O)N1C[C@@H](C)C[C@H]1c1nc2c(ccc3cc(-c4ccc(NC(=O)N5CCN(C6CCN(C(=O)C(C)(C)CO)CC6)CC5)cc4OC(F)(F)F)ccc32)[nH]1)C(C)C [Example 6-4]
- EC50 [1]: < 0.1 nM
- EC50 [2]: < 0.1 nM

Structure (SMILES): COC(=O)N[C@H](C(=O)N1C[C@@H](C)C[C@H]1c1nc(-c2ccc(-c3ccc(NC(=O)N4CCN(C5CCN(C(=O)OC(C)(C)C)CC5)CC4)cc3OC(F)(F)F)cc2)c[nH]1)C(C)C [Example 2-21]
- Genotype 1a (pEC50 class) [1]: D (D represents pEC50>10 (EC50<0.1 nM))
- Genotype 1b (pEC50 class) [2]: D (D represents pEC50>10 (EC50<0.1 nM))

Structure (SMILES): COC(=O)N[C@H](C(=O)N1C[C@@H](C)C[C@H]1c1nc(-c2ccc(-c3ccc(NC(=O)N4CCC(N5CCN(C(=O)C(C)(C)CO)CC5)CC4)cc3OC(F)(F)F)cc2)c(F)[nH]1)C1CCOCC1 [Example 9-3]
- EC50 [1]: 0.1 to 1 nM
- EC50 [2]: < 0.1 nM

Structure (SMILES): COC(=O)N[C@H](C(=O)N1CCC[C@H]1c1nc(-c2ccc(-c3ccc(NC(=O)N4CCN(C5CCN(C(=O)C6CC6)CC5)CC4)cc3)cc2)c[nH]1)C(C)C [Example 1-8]
- Genotype 1a (pEC50 class) [1]: C (C represents pEC50 between and 9 and about 10, (EC50 between 1 nM and 0.1 nM))
- Genotype 1b (pEC50 class) [2]: D (D represents pEC50>10 (EC50<0.1 nM))

Structure (SMILES): COC(=O)N[C@H](C(=O)N1CCC[C@H]1c1nc(-c2ccc(-c3ccc(NC(=O)N4CCN(C5CCN(C(=O)[C@H]6CC6(C)C)CC5)CC4)cc3OC(F)(F)F)cc2)c[nH]1)C(C)C [Example 1-12]
- Genotype 1a (pEC50 class) [1]: C (C represents pEC50 between and 9 and about 10, (EC50 between 1 nM and 0.1 nM))
- Genotype 1b (pEC50 class) [2]: D (D represents pEC50>10 (EC50<0.1 nM))

Structure (SMILES): COC(=O)N[C@H](C(=O)N1C[C@@H](C)C[C@H]1c1nc(-c2ccc(-c3cc(F)c(NC(=O)N4CCN(C5CCN(C(=O)[C@H]6CC6(C)C)CC5)CC4)cc3OC(F)(F)F)cc2)c[nH]1)C(C)C [Example 2-16]
- Genotype 1a (pEC50 class) [1]: D (D represents pEC50>10 (EC50<0.1 nM))
- Genotype 1b (pEC50 class) [2]: D (D represents pEC50>10 (EC50<0.1 nM))

Structure (SMILES): COC(=O)N[C@H](C(=O)N1C[C@@H](C)C[C@H]1c1nc(-c2ccc(-c3ccc(NC(=O)N4CCC(N5CCN(C(=O)C(C)(C)C)CC5)CC4)cc3OC(F)(F)F)cc2)c(F)[nH]1)C1CCOCC1 [Example 9-2]
- EC50 [1]: < 0.1 nM
- EC50 [2]: < 0.1 nM

Structure (SMILES): COC(=O)N[C@H](C(=O)N1C[C@@H](C)C[C@H]1c1nc2c(ccc3cc(-c4ccc(NC(=O)N5CCN(C6CCN(C(=O)[C@H]7CC7(C)C)CC6)CC5)cc4OC(F)(F)F)ccc32)[nH]1)C(C)C [Example 6-1]
- Genotype 1a (pEC50 class) [1]: D (D represents pEC50>10 (EC50<0.1 nM))
- Genotype 1b (pEC50 class) [2]: D (D represents pEC50>10 (EC50<0.1 nM))

Structure (SMILES): [2H]C([2H])([2H])C1(C([2H])([2H])[2H])CC1C(=O)N1CCC(N2CCN(C(=O)Nc3ccc(-c4ccc(-c5c[nH]c([C@@H]6C[C@H](C)CN6C(=O)[C@@H](NC(=O)OC)C(C)C)n5)cc4)c(OC(F)(F)F)c3)CC2)CC1 (stereo partly shown) [Example 2-20]
- Genotype 1a (pEC50 class) [1]: D (D represents pEC50>10 (EC50<0.1 nM))
- Genotype 1b (pEC50 class) [2]: D (D represents pEC50>10 (EC50<0.1 nM))

Structure (SMILES): COC(=O)N[C@H](C(=O)N1CCC[C@H]1c1nc(-c2ccc(-c3ccc(NC(=O)N4CCC(N5CCN(C(=O)[C@H]6CC6(C)C)CC5)CC4)cc3)cc2)c[nH]1)C(C)C [Example 3-2]
- Genotype 1a (pEC50 class) [1]: B (B represents pEC50 between 8 and 9 (EC50 between 1 and 10 nM))
- Genotype 1b (pEC50 class) [2]: D (D represents pEC50>10 (EC50<0.1 nM))

Structure (SMILES): COC(=O)N[C@H](C(=O)N1CCC[C@H]1c1nc(-c2ccc(-c3ccc(NC(=O)N4CCN(C5CCN(C(=O)OC(C)(C)C)CC5)CC4)cc3)cc2)c[nH]1)C(C)C [Example 1-1]
- Genotype 1a (pEC50 class) [1]: C (C represents pEC50 between and 9 and about 10, (EC50 between 1 nM and 0.1 nM))
- Genotype 1b (pEC50 class) [2]: D (D represents pEC50>10 (EC50<0.1 nM))

Structure (SMILES): COC(=O)N[C@H](C(=O)N1C[C@@H](C)C[C@H]1c1nc(-c2ccc(-c3ccc(NC(=O)N4CCN(C5CCN(C(=O)C(C)(C)C)CC5)CC4)cc3OC(F)(F)F)cc2)c[nH]1)C(C)C [Example 2-9]
- Genotype 1a (pEC50 class) [1]: D (D represents pEC50>10 (EC50<0.1 nM))
- Genotype 1b (pEC50 class) [2]: D (D represents pEC50>10 (EC50<0.1 nM))

Structure (SMILES): COC(=O)N[C@H](C(=O)N1C[C@@H](C)C[C@H]1c1nc(-c2ccc(-c3ccc(NC(=O)N4CCC(N5CCN(C(=O)C(C)(C)CO)CC5)CC4)cc3OC(F)(F)F)cc2)c[nH]1)C1CCOCC1 [Example 9-1]
- Genotype 1a (pEC50 class) [1]: C (C represents pEC50 between and 9 and about 10, (EC50 between 1 nM and 0.1 nM))
- Genotype 1b (pEC50 class) [2]: D (D represents pEC50>10 (EC50<0.1 nM))

Structure (SMILES): COC(=O)N[C@H](C(=O)N1C[C@@H](C)C[C@H]1c1nc(-c2ccc(-c3ccc(NC(=O)N4CCN(C5CCN(C(=O)[C@H]6CC6(C)C)CC5)CC4)cc3OC(F)(F)F)cc2)c(Cl)[nH]1)C(C)C [Example 2-17]
- Genotype 1a (pEC50 class) [1]: D (D represents pEC50>10 (EC50<0.1 nM))
- Genotype 1b (pEC50 class) [2]: D (D represents pEC50>10 (EC50<0.1 nM))

Structure (SMILES): COC(=O)N[C@H](C(=O)N1CCC[C@H]1c1nc(-c2ccc(-c3ccc(NC(=O)N4CCN(C5CCN(C(=O)OC(C)(C)C)CC5)CC4)cc3OC(F)(F)F)cc2)c[nH]1)C(C)C [Example 1-14]
- Genotype 1a (pEC50 class) [1]: C (C represents pEC50 between and 9 and about 10, (EC50 between 1 nM and 0.1 nM))
- Genotype 1b (pEC50 class) [2]: D (D represents pEC50>10 (EC50<0.1 nM))

Structure (SMILES): COC(=O)N[C@H](C(=O)N1CCC[C@H]1c1nc(-c2ccc(-c3ccc(NC(=O)N4CCN(C5CCN(C(=O)C(C)(C)CO)CC5)CC4)cc3OC(F)(F)F)cc2)c[nH]1)C(C)C [Example 1-17]
- Genotype 1a (pEC50 class) [1]: C (C represents pEC50 between and 9 and about 10, (EC50 between 1 nM and 0.1 nM))
- Genotype 1b (pEC50 class) [2]: D (D represents pEC50>10 (EC50<0.1 nM))

Structure (SMILES): COC(=O)N[C@H](C(=O)N1C[C@@H](C)C[C@H]1c1nc(-c2ccc(-c3cc(Cl)c(NC(=O)N4CCC(N5CCN(C(=O)[C@H]6CC6(C)C)C[C@@H]5C)CC4)cc3OC(F)(F)F)cc2)c[nH]1)C(C)C [Example 11, ((S)-1-{(2S,4S)-2-[4-(5′-Chloro-4′-{[4-((S)-4-dimethylcyclopropane-carbonyl-2-methyl-piperazin-1-yl)-piperidine-1-carbonyl]-amino}-2′-trifluoromethoxy-biphenyl-4-yl)-1H-imidazol-2-yl]-4-methyl-pyrrolidine-1-carbonyl}-2-methyl-propyl)-carbamic acid methyl ester]
- EC50 [1]: < 0.1 nM
- EC50 [2]: < 0.1 nM

Structure (SMILES): COC(=O)N[C@H](C(=O)N1C[C@@H](C)C[C@H]1c1nc(-c2ccc(-c3cc(F)c(NC(=O)N4CCN(C5CCN(C(=O)C(C)(C)C)CC5)CC4)cc3OC(F)(F)F)cc2)c[nH]1)C(C)C [Example 2-5]
- Genotype 1a (pEC50 class) [1]: D (D represents pEC50>10 (EC50<0.1 nM))
- Genotype 1b (pEC50 class) [2]: D (D represents pEC50>10 (EC50<0.1 nM))

Structure (SMILES): COC(=O)N[C@H](C(=O)N1C[C@@H](C)C[C@H]1c1nc(-c2ccc(-c3ccc(NC(=O)N4CCC(N5CCN(C(=O)C(C)(C)C)CC5)CC4)cc3OC(F)(F)F)cc2)c[nH]1)C1CCOCC1 [Example 17, [(S)-2-((2S,4S)-2-{4-[4′-({4-[4-(2,2-Dimethyl-propionyl)-piperazin-1-yl]-piperidine-1-carbonyl}-amino)-2′-trifluoromethoxy-biphenyl-4-yl]-1H-imidazol-2-yl}-4-methyl-pyrrolidin-1-yl)-2-oxo-1-(tetrahydro-pyran-4-yl)-ethyl]-carbamic acid methyl ester]
- EC50 [1]: 0.1 to 1 nM
- EC50 [2]: < 0.1 nM

Structure (SMILES): COC(=O)N[C@H](C(=O)N1C[C@@H](C)C[C@H]1c1nc(-c2ccc(-c3ccc(NC(=O)N4CCN(C5CCN(C(=O)C(C)(C)C)CC5)CC4)cc3OC(F)(F)F)cc2)c(Cl)[nH]1)C(C)C [Example 7, [(S)-1-((2S,4S)-2-{5-Chloro-4-[4′-({4-[1-(2,2-dimethyl-propionyl)-piperidin-4-yl]-piperazine-1-carbonyl}-amino)-2′-trifluoromethoxy-biphenyl-4-yl]-1H-imidazol-2-yl}-4-methyl-pyrrolidine-1-carbonyl)-2-methyl-propyl]-carbamic acid methyl ester]
- EC50 [1]: < 0.1 nM
- EC50 [2]: < 0.1 nM
